ChEMBL document CHEMBL4346739, “Design, synthesis, and evaluation of novel N-(4-phenoxybenzyl)aniline derivatives targeting acetylcholinesterase, β-amyloid aggregation and oxidative stress to treat Alzheimer's disease” (Bioorg Med Chem, 2019)
Active and inactive are the calls of the source. The calls are words filed in the database; no cut-off is given here.

How the values were obtained:
[1] = biological target: T1, Acetylcholinesterase (Homo sapiens, UniProt P22303); assay: Inhibition of human erythrocyte AChE using acetylthiocholine iodide as substrate preincubated for 10 mins followed by substrate addition and measured for 6 mins by Ellman's method
[2] = biological target: Cholinesterase (Homo sapiens, UniProt P06276); assay: Inhibition of human plasma BChE using butyrylthiocholine iodide as substrate preincubated for 10 mins followed by substrate addition and measured at 6 mins by Ellman's method
[3] = Permeability of compound at 25 ug/ml at pH 7.4 incubated for 18 hrs by PAMPA-BBB assay
[4] = Octanol/water partition co-efficient, log P of compound at pH 7.4 by shake-flask method; assay type: physicochemical
[5] = Acute toxicity in Swiss albino mouse assessed as salivation by OECD 423 guideline based method; details: in vivo
[6] = system: Mus musculus; assay: Reversal of scopolamine-induced amnesic effect in albino mouse assessed as increase in transfer latency time of acquisition trial at 2.5 to 10 mg/kg, po administered once daily for 7 days followed by scopolamine challenge and subsequent training session for 5 mins by passive avoidance test; assay type: functional, organism-based
[7] = system: Mus musculus; assay: Effect on total arm entries in scopolamine-induced spatial memory impairment in albino mouse model of amnesia at 2.5 to 10 mg/kg, po administered once daily for 7 days followed by scopolamine challenge for 5 mins prior to test and measured on day 7 by Y-maze test; assay type: ADME, organism-based; details: in vivo
[8] = biological target: T1, Acetylcholinesterase; assay: Competitive inhibition of human erythrocyte AChE assessed as enzyme-inhibitor complex formation by measuring intersection points on both axes of 1/Vmax and 1/[S] at 10 nM to 10 uM using acetylthiocholine iodide as substrate preincubated for 10 mins followed by substrate addition and measured up to 6 mins by Lineweaver-Burk plot analysis
[9] = system: Mus musculus; assay: In vivo antioxidant activity in albino mouse assessed as increase in scopolamine-induced SOD level in brain at 2.5 to 10 mg/kg, po administered once daily for 7 days followed by scopolamine challenge and measured for 2 mins at 30 secs interval; assay type: functional, organism-based
[10] = biological target: T1, Acetylcholinesterase; assay: Inhibition of human erythrocyte AChE-induced amyloid beta (1 to 42) (unknown origin) aggregation incubated for 48 hrs by fluorescence based thioflavin T assay
[11] = system: Mus musculus; assay: Antialzheimer activity in albino mouse assessed as reversal of scopolamine-induced AChE level in brain at 2.5 to 10 mg/kg, po administered once daily for 7 days followed by scopolamine challenge using acetylthiocholine iodide as substrate by Ellman's method; assay type: functional, organism-based
[12] = system: Mus musculus; assay: In vivo antioxidant activity in albino mouse assessed as increase in scopolamine-induced catalase activity by measuring decrease in H2O2 level in brain at 2.5 to 10 mg/kg, po administered once daily for 7 days followed by scopolamine challenge; assay type: functional, organism-based
[13] = biological target: T1, Acetylcholinesterase; assay: Competitive inhibition of human erythrocyte AChE assessed as effect on substrate V max at 10 nM to 10 uM using acetylthiocholine iodide as substrate preincubated for 10 mins followed by substrate addition and measured up to 6 mins by Lineweaver-Burk plot analysis
[14] = system: Mus musculus; assay: In vivo antioxidant activity in albino mouse assessed as decrease in scopolamine-induced MDA level in brain at 2.5 to 10 mg/kg, po administered once daily for 7 days followed by scopolamine challenge by TBARS assay; assay type: functional, organism-based
[15] = Acute toxicity in Swiss albino mouse assessed as convulsions by OECD 423 guideline based method; details: in vivo
[16] = Acute toxicity in Swiss albino mouse assessed as effect on sleep by OECD 423 guideline based method; details: in vivo
[17] = Acute toxicity in Swiss albino mouse assessed as effect on feeding behavior by OECD 423 guideline based method; details: in vivo
[18] = Acute toxicity in Swiss albino mouse assessed as induction of tremors by OECD 423 guideline based method; details: in vivo
[19] = Acute toxicity in Swiss albino mouse assessed as diarrhea by OECD 423 guideline based method; details: in vivo
[20] = system: Mus musculus; assay: Cognitive enhancing effect in albino mouse assessed as reversal of scopolamine-induced reduction in spontaneous alteration score at 5 mg/kg, po administered once daily for 7 days followed by scopolamine challenge for 5 mins prior to test and measured on day 7 by Y-maze test; assay type: functional, organism-based
[21] = biological target: T1, Acetylcholinesterase; assay: Competitive inhibition of human erythrocyte AChE at 10 nM to 10 uM using acetylthiocholine iodide as substrate preincubated for 10 mins followed by substrate addition and measured up to 6 mins by Lineweaver-Burk plot analysis
[22] = system: Mus musculus; assay: Cognitive enhancing effect in albino mouse assessed as reversal of scopolamine-induced reduction in spontaneous alteration score at 2.5 to 10 mg/kg, po administered once daily for 7 days followed by scopolamine challenge for 5 mins prior to test and measured on day 7 by Y-maze test; assay type: functional, organism-based
[23] = system: Mus musculus; assay: Reversal of scopolamine-induced amnesic effect in albino mouse assessed as increase in transfer latency time of retention trial at 2.5 to 10 mg/kg, po administered once daily for 7 days followed by scopolamine challenge and subsequent training session for 5 mins by passive avoidance test; assay type: functional, organism-based
[24] = biological target: T1, Acetylcholinesterase; assay: Competitive inhibition of human erythrocyte AChE assessed as enzyme-inhibitor complex formation by measuring 1/s at 10 nM to 10 uM using acetylthiocholine iodide as substrate preincubated for 10 mins followed by substrate addition and measured up to 6 mins by Lineweaver-Burk plot analysis
[25] = biological target: T1, Acetylcholinesterase; assay: Competitive inhibition of human erythrocyte AChE assessed as […] in Km at 10 nM to 10 uM using acetylthiocholine iodide as substrate preincubated for 10 mins followed by substrate addition and measured up to 6 mins by Lineweaver-Burk plot analysis
[26] = Acute toxicity in Swiss albino mouse assessed as mortality by OECD 423 guideline based method; details: in vivo

T1 sequence (P22303 whole entry): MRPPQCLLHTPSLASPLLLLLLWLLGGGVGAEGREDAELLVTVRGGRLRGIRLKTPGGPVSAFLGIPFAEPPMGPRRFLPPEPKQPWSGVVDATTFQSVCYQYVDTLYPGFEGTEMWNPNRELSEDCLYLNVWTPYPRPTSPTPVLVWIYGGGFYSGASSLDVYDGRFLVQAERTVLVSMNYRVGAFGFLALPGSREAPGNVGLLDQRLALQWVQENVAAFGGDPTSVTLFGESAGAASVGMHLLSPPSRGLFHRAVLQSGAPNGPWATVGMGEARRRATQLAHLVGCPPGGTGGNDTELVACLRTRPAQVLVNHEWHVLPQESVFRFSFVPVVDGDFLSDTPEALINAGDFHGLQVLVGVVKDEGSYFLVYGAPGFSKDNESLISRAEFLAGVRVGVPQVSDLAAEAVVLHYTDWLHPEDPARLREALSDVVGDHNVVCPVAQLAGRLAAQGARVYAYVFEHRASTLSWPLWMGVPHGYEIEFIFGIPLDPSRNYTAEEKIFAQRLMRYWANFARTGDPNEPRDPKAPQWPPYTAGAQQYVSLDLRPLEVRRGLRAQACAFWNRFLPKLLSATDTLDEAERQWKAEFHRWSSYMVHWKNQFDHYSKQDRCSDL
Chain of Cholinesterase (P06276 whole entry): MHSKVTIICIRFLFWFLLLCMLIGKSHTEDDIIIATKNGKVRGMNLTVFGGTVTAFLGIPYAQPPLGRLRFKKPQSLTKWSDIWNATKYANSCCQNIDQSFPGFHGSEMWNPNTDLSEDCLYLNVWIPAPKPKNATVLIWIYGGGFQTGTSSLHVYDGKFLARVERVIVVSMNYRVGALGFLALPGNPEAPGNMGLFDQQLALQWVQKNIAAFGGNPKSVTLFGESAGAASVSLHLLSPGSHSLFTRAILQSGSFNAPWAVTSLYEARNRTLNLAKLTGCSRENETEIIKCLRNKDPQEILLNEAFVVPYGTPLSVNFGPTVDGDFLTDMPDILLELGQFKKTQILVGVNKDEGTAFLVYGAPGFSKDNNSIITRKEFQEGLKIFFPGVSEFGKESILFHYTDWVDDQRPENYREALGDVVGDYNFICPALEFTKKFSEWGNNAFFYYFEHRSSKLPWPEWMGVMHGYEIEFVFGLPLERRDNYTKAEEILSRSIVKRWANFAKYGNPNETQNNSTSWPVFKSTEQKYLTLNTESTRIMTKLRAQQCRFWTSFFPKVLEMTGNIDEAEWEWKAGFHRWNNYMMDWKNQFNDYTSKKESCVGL

What does the source list for `Nc1cccc(Cl)c1Oc1ccc(CNc2ccc(Br)cc2)cc1`?
IC50 [1]: > 10 µM; IC50 [2]: > 10 µM; Papp at 18 h, 25 ug/ml [3]: 3.48 ×10⁻⁶ cm/s; logD [4]: 4.52

Which Papp at 18 h, 25 ug/ml [3] does the source give for `Cc1nnc2n1-c1ccc(Cl)cc1C(c1ccccc1)=NC2` [ALPRAZOLAM] here?
The Papp at 18 h, 25 ug/ml was 4.2 to 5.4 ×10⁻⁶ cm/s.

For `Nc1cccc(Cl)c1Oc1ccc(CNc2cccc(Br)c2)cc1`, which IC50 [1] is on record?
Its IC50 is > 10 µM.

And the IC50 [2]?
The IC50 was > 10 µM.

And the Papp at 18 h, 25 ug/ml [3]?
The Papp at 18 h, 25 ug/ml was 3.56 ×10⁻⁶ cm/s.

What about the logD [4] of the same compound?
The logD was 4.05.

Which Papp at 18 h, 25 ug/ml [3] does the source give for `CC(=O)[C@H]1CC[C@H]2[C@@H]3CCC4=CC(=O)CC[C@]4(C)[C@H]3CC[C@]12C` [PROGESTERONE] here?
Its Papp at 18 h, 25 ug/ml is 9.3 to 13.8 ×10⁻⁶ cm/s.

With `Nc1cccc(Cl)c1Oc1ccc(CNc2cccc(O)c2)cc1` as the compound, how does the IC50 [1] read?
The IC50 was 7.23 µM.

And the IC50 [2]?
The IC50 was 9.45 µM.

And the Papp at 18 h, 25 ug/ml [3]?
Its Papp at 18 h, 25 ug/ml is 5.55 ×10⁻⁶ cm/s.

And the logD [4]?
Its logD is 3.01.

With `Nc1cccc(Cl)c1Oc1ccc(CNc2cccc(Cl)c2)cc1` as the compound, how does the IC50 [1] read?
Its IC50 is > 10 µM.

What about the IC50 [2] of the same compound?
The IC50 was > 10 µM.

What about the Papp at 18 h, 25 ug/ml [3] of the same compound?
Its Papp at 18 h, 25 ug/ml is 5.65 ×10⁻⁶ cm/s.

What about the logD [4] of the same compound?
The logD was 3.98.

Which Papp at 18 h, 25 ug/ml [3] does the source give for `NCCc1ccc(O)c(O)c1` [DOPAMINE] here?
Its Papp at 18 h, 25 ug/ml is 0.18 to 0.2 ×10⁻⁶ cm/s.

For `COc1cc(NCc2ccc(Oc3c(N)cccc3Cl)cc2)cc(OC)c1OC`, which Activity [5] is on record?
The Activity was “Non-Toxic”.

And the Activity [6]?
Its Activity is “Active”.

What about the Activity [7] of the same compound?
Its Activity is “Non-Toxic”.

What about the Ratio [8] of the same compound?
Its Ratio is > 0.

What about the Activity [9] of the same compound?
The Activity was “Active”.

What about the inhibition [10] of the same compound?
Its inhibition is “Dose-dependent effect”.

What about the Activity [11] of the same compound?
Its Activity is “Dose-dependent effect”.

What about the Activity [12] of the same compound?
The Activity was “Active”.

What about the inhibition [13] of the same compound?
The inhibition was “Active”.

And the Activity [14]?
The Activity was “Active”.

And the Activity [15]?
Its Activity is “Non-Toxic”.

What about the IC50 [1] of the same compound?
Its IC50 is 1.32 µM.

What about the Activity [16] of the same compound?
Its Activity is “Non-Toxic”.

What about the Activity [17] of the same compound?
Its Activity is “Non-Toxic”.

What about the Activity [18] of the same compound?
The Activity was “Non-Toxic”.

And the Activity [19]?
The Activity was “Non-Toxic”.

What about the Activity [20] of the same compound?
Its Activity is “Active”.

What about the Ki [21] of the same compound?
The Ki was 0.879 µM.

And the IC50 [2]?
Its IC50 is 8.41 µM.

And the Papp at 18 h, 25 ug/ml [3]?
The Papp at 18 h, 25 ug/ml was 6.35 ×10⁻⁶ cm/s.

And the logD [4]?
The logD was 3.78.

And the Activity [22]?
The Activity was “Active”.

And the Activity [23]?
Its Activity is “Dose-dependent effect”.

And the fold change (FC) [24]?
The fold change (FC) was > 0.

What about the inhibition [25] of the same compound?
The inhibition was “Active”.

And the Activity [26]?
The Activity was “Non-Toxic”.

What does the source list for `Nc1cccc(Cl)c1Oc1ccc(CNc2cc(Br)cc(Br)c2)cc1`?
IC50 [1]: > 10 µM; IC50 [2]: > 10 µM; Papp at 18 h, 25 ug/ml [3]: 1.45 ×10⁻⁶ cm/s; logD [4]: 4.52

Which IC50 [1] does the source give for `COc1cccc(NCc2ccc(Oc3c(N)cccc3Cl)cc2)c1` here?
Its IC50 is 5.65 µM.

What about the IC50 [2] of the same compound?
Its IC50 is 8.25 µM.

What about the Papp at 18 h, 25 ug/ml [3] of the same compound?
The Papp at 18 h, 25 ug/ml was 4.65 ×10⁻⁶ cm/s.

And the logD [4]?
The logD was 3.98.
